Here are results for 1 molecule from patent US10407454B2, “Defined enzymatic synthesis of lipid A analogs” (The Board of Trustees of the Leland Stanford Junior …, priority 2016, dated 2019).

In this experiment the target is T1, TLR4 (Homo sapiens, UniProt O00206+Q9Y6Y9).
T1 construct: endogenous in cells; host or cells: HUVEC
As to the kind of experiment: TLR signaling assay: IL-6 release (ELISA) from LPS-stimulated HUVEC cells pretreated with Lipid IVA or analogs. The class given is cell-based. Particulars: 1 hour pretreatment, then 100 ng/mL LPS, supernatant 18 hours after LPS, mean ± SD of triplicate wells (LPS only: 425 ± 7). As to the method: Antagonistic Effect of Unsaturated Lipid IVA. To examine the antagonistic effect of the Lipid IVA analogues produced by our reconstituted system, products from sample 1-3 were assayed against LPS stimulated HUVEC microphage cell line. IL-6 level was measured as an indicator of TLR4 suppression. As a negative control, an in vitro reaction lacking acetyl-CoA was run and processed in parallel. Lipid IVA samples was quantified via mass spectrometry by comparing with a standard curve generated from synthetic Lipid IVA standard. […]
TLR Signaling Assays. HUVECs were grown to approximately 80% confluency in plastic 48-well cell culture plates. Six hours prior to the beginning the assay, medium was aspirated and replaced with 200 μL fresh medium per well. 100× stock dilutions of LPS (in sterile water) and Lipid IVa (in methanol) were freshly prepared from lyophilized solids. Cells were subjected to a 1-hour preincubation with the indicated amounts of Lipid IVa, or Samples 1, 2, or 3, and then LPS (100 ng/mL) was added. Aliquots of the culture supernatant were taken after 18 hours, frozen at −20 C, and then analyzed for IL-6 using a commercial ELISA kit following the manufacturer's (eBioSciences) recommended protocol.
In general terms: ELISA stands for enzyme-linked immunosorbent assay.

T1 sequence (O00206 24-839): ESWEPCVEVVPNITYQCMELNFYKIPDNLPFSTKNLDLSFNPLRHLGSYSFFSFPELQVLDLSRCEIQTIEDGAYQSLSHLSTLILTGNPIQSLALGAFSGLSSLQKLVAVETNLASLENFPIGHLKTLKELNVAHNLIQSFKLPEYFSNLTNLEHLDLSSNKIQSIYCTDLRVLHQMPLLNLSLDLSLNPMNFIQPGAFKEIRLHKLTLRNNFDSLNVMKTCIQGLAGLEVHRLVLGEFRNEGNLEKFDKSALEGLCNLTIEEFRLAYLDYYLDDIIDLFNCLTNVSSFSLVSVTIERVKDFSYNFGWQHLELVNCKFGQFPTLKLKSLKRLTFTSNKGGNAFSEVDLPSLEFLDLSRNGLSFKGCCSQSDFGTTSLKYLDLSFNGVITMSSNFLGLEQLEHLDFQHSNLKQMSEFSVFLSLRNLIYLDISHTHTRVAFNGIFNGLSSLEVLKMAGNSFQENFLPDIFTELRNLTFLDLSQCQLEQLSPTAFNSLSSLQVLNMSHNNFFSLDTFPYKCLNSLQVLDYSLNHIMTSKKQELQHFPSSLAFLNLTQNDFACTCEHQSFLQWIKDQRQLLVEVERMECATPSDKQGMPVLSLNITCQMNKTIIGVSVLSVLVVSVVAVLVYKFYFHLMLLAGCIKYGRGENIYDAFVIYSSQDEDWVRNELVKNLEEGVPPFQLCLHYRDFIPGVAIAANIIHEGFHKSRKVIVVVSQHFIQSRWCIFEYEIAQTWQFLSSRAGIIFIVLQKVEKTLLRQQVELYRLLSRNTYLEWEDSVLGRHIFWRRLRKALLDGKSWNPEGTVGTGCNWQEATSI
T1 sequence (Q9Y6Y9 19-160): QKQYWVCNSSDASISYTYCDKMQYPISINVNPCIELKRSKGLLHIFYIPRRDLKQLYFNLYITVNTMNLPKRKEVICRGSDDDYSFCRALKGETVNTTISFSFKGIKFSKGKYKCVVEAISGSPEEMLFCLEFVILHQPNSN

Regarding `CCCCCCCCCCC[C@@H](O)CC(=O)N[C@H]1[C@H](OC[C@H]2O[C@H](OP(=O)(O)O)[C@H](NC(=O)C[C@H](O)CCCCCCCCCCC)[C@@H](OC(=O)C[C@H](O)CCCCCCCCCCC)[C@@H]2O)O[C@H](CO)[C@@H](OP(=O)(O)O)[C@@H]1OC(=O)C[C@H](O)CCCCCCCCCCC` [Lipid IVA], the “[IL-6] (pg/mL) in HUVEC culture supernatant” value is, setting by setting: (10 ng/mL compound) 484 ± 25 pg/mL; (100 ng/mL compound) 212 ± 33 pg/mL; (500 ng/mL compound) 57 ± 3 pg/mL.
